Results taken from paper PMC9063842, “A GH115 α-glucuronidase structure reveals dimerization-mediated substrate binding and a proton wire potentially important for catalysis” (Acta Crystallographica. Section D, Structural Biology, 2022).

Experiments:
wtsAgu115A = biological target: T1, wtsAgu115A (uncultured bacterium, UniProt A0ACD6BAS3); assay: X-ray crystal structure, crystal soaking; format: binding; conditions: 2.65 A; 0.2 M CaCl2, HEPES pH 7.5, 28% PEG 400; five of six xylose units visible; active site at dimer interface; Ca2+ near site; wild type inferred (Asp303 side chain H-bonds the ligand)
T1 construct: mature protein without 19-residue signal peptide, pET-28a (NcoI/XhoI), His-tag purified, E. coli BL21(DE3) pLysS; homodimer

[1] = biological target: the molecule itself; assay: SEC; analytical gel filtration, HiLoad 16/60 Superdex G200, 10 mM sodium acetate, 150 mM NaCl pH 6, 0.5 ml/min; standards aldolase (158 kDa), conalbumin (75 kDa), ovalbumin (44 kDa)

Molecule	X-ray crystal structure, crystal soaking (wtsAgu115A)	stoichiometry N [1]
OC1OC[C@@H](O[C@@H]2OC[C@@H](O[C@@H]3OC[C@@H](O[C@@H]4OC[C@@H](O[C@@H]5OC[C@@H](O[C@@H]6OC[C@@H](O)[C@H](O)[C@H]6O)[C@H](O)[C@H]5O)[C@H](O)[C@H]4O)[C@H](O)[C@H]3O)[C@H](O)[C@H]2O)[C@H](O)[C@H]1O (some centres unmarked) [xylohexaose]	five β-1,4-linked D-xylopyranose moieties was observed in the crystal structure of wtsAgu115A soaked with xylohexaose	–
wtsAgu115A (enzyme) AGDNKGITYEELNPERFTLLEKGTPTNILIDENEDQGVMIAATNLSEDFGRVSGTNAPLIFLPDNERLIIVGTLESRYIKELTENRKIKGDELKGKNEKYLMTVVDNPLPGVKEALIIAGSDKRGAIYGIYELSEQIGVSPWYDWADVPVKPQQNLSIERGSYTADEPAVTYRGIFLNDEAPALTSWVENTYGTKYGDHRFYSRVFELILRLRGNFLWPAMWDWSFYGDDPLNSKTADTMGIIMGTSHHEPMARNHQEWARNRDKYGVWDYTSNQEVIDQFFREGIERVKDTDDLITIGMRGDGDTPMPMGVKEGEDHLPSDEDNMRLLERIIKNQREIIGDVTGESPEKTPQVWAIYKEVQRYFDLGLRPPEDVIILLSDDNWGNVRRLPTEEERDHPGGWGMYYHFDYVGAPRSSKWLNISPIQNIWEQMQLTYDYGVDELWVANVGDLKPMEYPITLFLDMAWDPTRFNAENLLDHTRSFAAQQFGEDQADEAARIINLYSKYNGRVTPEMLDRNTYNLESGEWKKVSDEYIKLEAEALRQYLTLEPEQRDAYKQLILYPVQAMANLYEMYYSQAMNHKLYRENNPMANYWADRVEETFNRDAELSHDYNKVMANGKWDGMMTQKKIGYRSWNDNFPADTLPQIFRIENPEEATGGYVFTARDGVVVIEAEHYFEAKDAEEAKWTVIPYMGRTLSSIALMPYTKEVEGASLSYRMQIPDEVSEVKVHVVVKSTLPFHDPKGHEYRVGFEGGSKEIVNFNWNLNEEPENIYSVFYPTVASRVVKKDVTLDLHDTDDGFYTLTLEPLDPGIVFQKIVVDFGGYEESRLFMEESPNKRIEIE	–	2
